Data from article PMC9837035 (Nature Communications, 2023).

Tests used:
[1] = tested on: H3K9me2 in CD34+ cells; assay: Western blotting of H3K9me2 in CD34+ cells; type: cell-based, human
Method: HUDEP-2 cells and HiDEP-1 cells were grown in Stemline II Hematopoietic Stem Cell Expansion Medium (Sigma) supplemented with 50 ng/mL recombinant stem cell factor (SCF; R&D systems), 3 IU/mL recombinant erythropoietin (EPO; Kyowa Kirin), 1 μM dexamethasone (Dex; Sigma), and 1 μg/mL doxycycline (Sigma). A total of 1 × 10^5 human CD34^+ progenitor cells derived from bone marrow or peripheral blood (Lonza) were cultured on 35-mm dishes (BD Falcon) in StemSpan SFEMII medium with 50 ng/mL SCF, 5 IU/mL EPO, and 10 ng /mL interleukin 3 (IL-3; R&D systems). The medium was changed on day 4 to SCF, EPO, and 1 μM Dex, and the cells were transferred to 60-mm dishes (BD Falcon). Seven days after the onset of differentiation, cells were counted and 1 × 10^6 cells were re-plated on 100-mm dishes (BD Falcon) with SCF, EPO, and Dex. The rat myoblast cell line H9c2, HEK293T, and PLAT-E cells were maintained in Dulbecco’s modified Eagle’s medium (Thermo Fisher Scientific) supplemented with 10% heat-inactivated fetal bovine serum (FBS) and penicillin/streptomycin. All cells were cultured at 37 °C under 5% CO2.
Preparation of cell lysates and western blotting were performed as described previously. […] The immune complexes were detected with the Immobilon Western Chemiluminescent HRP Substrate (Millipore). Luminescence was analyzed on a FUSION SOLO S (Vilber). […]

[2] = tested on: H3K27me3 in HUDEP-2 cells; assay: Western blotting of H3K27me3; type: cell-based, human; conditions: peer review file
Method: (§1) Preparation of cell lysates and western blotting were performed as described previously. Protein from cells lysates in lysis buffer (50 mM Tris-HCl (pH 7.5), 150 mM NaCl, 5 mM EDTA, 0.1% NP-40, 1 mM dithiothreitol) were separated by sodium dodecyl sulfate–polyacrylamide gel electrophoresis (SDS-PAGE) and transferred to a polyvinylidene difluoride (PVDF) membrane (Millipore) by electroblotting. The membranes incubated with primary antibodies overnight at 4 °C and secondary antibodies for 1 h at room temperature. The immune complexes were detected with the Immobilon Western Chemiluminescent HRP Substrate (Millipore). Luminescence was analyzed on a FUSION SOLO S (Vilber). Western blot bands were visualized using Evolution Capt software (M&S Instruments Inc.). Primary antibodies used were anti-G9a (1:1000, CST, #3306), anti–α-tubulin (1:5000, Abcam, ab18251), anti-H3K9me2 (1:3000, Abcam, ab1220), anti-H3 (1:5000, Abcam, ab1791), anti-H3K27me3 (1:3000, Sigma, 07-449), anti-GLP (1:1000, CST, #35005), anti-FLAG (100 ng/ml, Fujifilm, 01422383), anti-His (1:5000, MBL, PM032), anti-BCL11A (1:1000, abcam, ab19487), anti-ZBTB7A (1:1000, CST, #50565), anti-CHD3 (1:1000, Novus Biologicals, NB100-60412), and anti-CHD4 (1:1000, abcam, ab240640). Uncropped scans of all of the blots are available in Source Data file.

[3] = biological target: T1, G9a (Homo sapiens, UniProt Q96KQ7); assay: Radioisotope-based methyltransferase assay (selectivity); conditions: 1 μM SAM
T1 sequence (Q96KQ7 1-1210): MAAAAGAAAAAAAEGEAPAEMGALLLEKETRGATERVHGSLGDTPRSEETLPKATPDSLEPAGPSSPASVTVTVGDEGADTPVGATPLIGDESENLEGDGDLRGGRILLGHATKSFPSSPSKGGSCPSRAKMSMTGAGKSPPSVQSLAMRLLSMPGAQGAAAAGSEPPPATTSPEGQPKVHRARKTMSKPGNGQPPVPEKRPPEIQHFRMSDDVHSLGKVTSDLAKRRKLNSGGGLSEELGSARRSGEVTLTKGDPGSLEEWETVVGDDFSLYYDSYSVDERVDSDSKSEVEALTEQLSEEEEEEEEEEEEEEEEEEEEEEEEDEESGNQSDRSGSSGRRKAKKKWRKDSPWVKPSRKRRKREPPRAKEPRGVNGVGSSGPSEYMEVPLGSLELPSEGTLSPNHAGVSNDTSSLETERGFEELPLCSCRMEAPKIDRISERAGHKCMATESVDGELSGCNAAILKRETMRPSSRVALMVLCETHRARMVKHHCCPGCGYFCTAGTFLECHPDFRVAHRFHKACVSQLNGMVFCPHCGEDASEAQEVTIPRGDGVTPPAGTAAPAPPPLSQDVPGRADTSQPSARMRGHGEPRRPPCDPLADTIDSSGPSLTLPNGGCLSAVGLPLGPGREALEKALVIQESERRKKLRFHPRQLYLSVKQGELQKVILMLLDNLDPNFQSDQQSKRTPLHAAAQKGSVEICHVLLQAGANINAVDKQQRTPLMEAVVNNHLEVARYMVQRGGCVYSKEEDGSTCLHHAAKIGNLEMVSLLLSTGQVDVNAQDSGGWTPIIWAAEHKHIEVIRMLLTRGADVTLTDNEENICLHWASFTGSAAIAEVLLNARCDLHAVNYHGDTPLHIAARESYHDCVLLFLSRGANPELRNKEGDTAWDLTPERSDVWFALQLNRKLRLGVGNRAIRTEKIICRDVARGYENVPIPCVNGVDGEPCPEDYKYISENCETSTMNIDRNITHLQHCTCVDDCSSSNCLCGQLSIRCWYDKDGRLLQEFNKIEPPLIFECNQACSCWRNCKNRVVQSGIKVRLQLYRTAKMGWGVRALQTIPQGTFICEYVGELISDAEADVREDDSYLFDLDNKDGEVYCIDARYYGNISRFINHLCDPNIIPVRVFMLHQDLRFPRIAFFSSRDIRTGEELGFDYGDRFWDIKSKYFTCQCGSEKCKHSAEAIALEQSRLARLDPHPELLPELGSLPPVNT

[4] = tested on: G9a and GLP in HUDEP-2 cells; assay: Western blotting of G9a and GLP levels in HUDEP-2 cells; type: cell-based, human
Method: as §1

With `NC(=O)NO` [Hydroxyurea, hydroxyurea] the H3K9me2 level [1] was “did not affect the H3K9me2 level”.

For `Cc1c(C(=O)NC(CCC2CC2)C(=O)Nc2ccc(C#N)cc2)[nH]c2c1C(=O)CC(C)(C)C2` (centres unmarked) [RK-701], the H3K27me3 ([2]; 0.1 µM) was “no effect on H3K27me3”, the H3K27me3 [2] was “slightly decrease H3K27me3 only at high” and the IC50 [3] was 23 nM. For the same compound, the “expression levels of G9a and GLP” value [4] was “did not affect”.
